Reference: publication PMC10620772, “Design, synthesis, and biological evaluation of new pyrimidine-5-carbonitrile derivatives as novel anti-cancer, dual EGFR^WT/COX-2 inhibitors with docking studies” (RSC Advances, 2023)

Assays:
[1] = tested on: EKVX; test: NCI60 antitumor screening; assay type: cell-based, human; conditions: Homo sapiens; 10 μM single dose; EKVX (non-small cell lung cancer); read-out: growth inhibition percent (GI%)
[2] = tested on: T-47D; test: NCI60 antitumor screening; assay type: cell-based, human; conditions: Homo sapiens, T47D; 10 μM single dose; T-47D (breast cancer); read-out: growth inhibition percent (GI%)
[3] = tested on: LOX IMVI; test: NCI60 antitumor screening; assay type: cell-based, human; conditions: Homo sapiens; 10 μM single dose; LOX IMVI (melanoma); read-out: growth inhibition percent (GI%)
[4] = tested on: HS 578T; test: NCI60 antitumor screening; assay type: cell-based, human; conditions: Homo sapiens; 10 μM single dose; HS 578T (breast cancer); read-out: growth inhibition percent (GI%)
[5] = tested on: SW-620; test: NCI60 antitumor screening; assay type: cell-based, human; conditions: Homo sapiens; 10 μM single dose; SW-620 (colon cancer); read-out: growth inhibition percent (GI%)
[6] = tested on: NCI-H460; test: NCI60 antitumor screening; assay type: cell-based, human; conditions: Homo sapiens; 10 μM single dose; NCI-H460 (non-small cell lung cancer); read-out: growth inhibition percent (GI%)
[7] = tested on: U251; test: NCI60 antitumor screening; assay type: cell-based, human; conditions: Homo sapiens, U-251; 10 μM single dose; U251 (CNS cancer); read-out: growth inhibition percent (GI%)
[8] = tested on: SF-539; test: NCI60 antitumor screening; assay type: cell-based, human; conditions: Homo sapiens; 10 μM single dose; SF-539 (CNS cancer); read-out: growth inhibition percent (GI%)
[9] = tested on: OVCAR-4; test: NCI60 antitumor screening; assay type: cell-based, human; conditions: Homo sapiens; 10 μM single dose; OVCAR-4 (ovarian cancer); read-out: growth inhibition percent (GI%)
[10] = tested on: NCI60 cell lines panel; test: NCI60 antitumor screening, full panel; assay type: cell-based, human; conditions: Homo sapiens; 10 μM single dose; mean over NCI60 cell lines; read-out: Mean growth inhibition percent (GI%)
Method in brief: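 Percent growth inhibition (GI%) was recorded for each of the NCI60 lines, spanning leukaemia, lung, colon, CNS, melanoma, ovarian, renal, prostate and breast cancers, after exposure to compounds at one concentration, 10 μM.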

[11] = tested on: MDA-MB-435; test: NCI60 antitumor screening; assay type: cell-based, human; conditions: Homo sapiens; 10 μM single dose; MDA-MB-435 (melanoma); read-out: growth inhibition percent (GI%)
[12] = tested on: A498; test: NCI60 antitumor screening; assay type: cell-based, human; conditions: Homo sapiens; 10 μM single dose; A498 (renal cancer); read-out: growth inhibition percent (GI%)
[13] = tested on: COLO 205; test: NCI60 antitumor screening; assay type: cell-based, human; conditions: Homo sapiens; 10 μM single dose; COLO 205 (colon cancer); read-out: growth inhibition percent (GI%)
[14] = tested on: HCT-116; test: NCI60 antitumor screening; assay type: cell-based, human; conditions: Homo sapiens; 10 μM single dose; HCT-116 (colon cancer); read-out: growth inhibition percent (GI%)
[15] = tested on: MALME-3M; test: NCI60 antitumor screening; assay type: cell-based, human; conditions: Homo sapiens; 10 μM single dose; MALME-3M (melanoma); read-out: growth inhibition percent (GI%)
[16] = tested on: SK-MEL-28; test: NCI60 antitumor screening; assay type: cell-based, human; conditions: Homo sapiens; 10 μM single dose; SK-MEL-28 (melanoma); read-out: growth inhibition percent (GI%)
[17] = tested on: NCI/ADR-RES; test: NCI60 antitumor screening; assay type: cell-based, human; conditions: Homo sapiens; 10 μM single dose; NCI/ADR-RES (ovarian cancer); read-out: growth inhibition percent (GI%)
[18] = tested on: K-562; test: NCI60 antitumor screening; assay type: cell-based, human; conditions: Homo sapiens; 10 μM single dose; (leukaemia); read-out: growth inhibition percent (GI%)
[19] = tested on: HOP-62; test: NCI60 antitumor screening; assay type: cell-based, human; conditions: Homo sapiens; 10 μM single dose; HOP-62 (non-small cell lung cancer); read-out: growth inhibition percent (GI%)
[20] = tested on: NCI-H322M; test: NCI60 antitumor screening; assay type: cell-based, human; conditions: Homo sapiens; 10 μM single dose; NCI-H322M (non-small cell lung cancer); read-out: growth inhibition percent (GI%)

| SMILES | inhibition at 10 µM [1] [%] | inhibition at 10 µM [2] [%] | inhibition at 10 µM [3] [%] | melting point [°C] | inhibition at 10 µM [4] [%] | inhibition at 10 µM [5] [%] | inhibition at 10 µM [6] [%] | inhibition at 10 µM [7] [%] | inhibition at 10 µM [8] [%] | inhibition at 10 µM [9] [%] | inhibition at 10 µM [10] [%] | inhibition at 10 µM [11] [%] | inhibition at 10 µM [12] [%] | inhibition at 10 µM [13] [%] | inhibition at 10 µM [14] [%] | inhibition at 10 µM [15] [%] | inhibition at 10 µM [16] [%] | inhibition at 10 µM [17] [%] | inhibition at 10 µM [18] [%] | inhibition at 10 µM [19] [%] | further results |
| --- | --- | --- | --- | --- | --- | --- | --- | --- | --- | --- | --- | --- | --- | --- | --- | --- | --- | --- | --- | --- | --- |
| N#Cc1c(-c2ccc(F)cc2)nc(SCc2ccc(F)cc2)nc1N1CCN(c2ccccc2)CC1 [4n, 2-((4-Fluorobenzyl)thio)-4-(4-fluorophenyl)-6-(4-phenylpiperazin-1-yl)pyrimidine-5-carbonitrile] | 18.7 | 24.3 | < 10 | 180 to 182 | < 10 | < 10 | < 10 | < 10 | < 10 | 10.4 | < 10 | < 10 | < 10 | < 10 | 11.8 | < 10 | < 10 | < 10 | 12.5 | < 10 | inhibition at 10 µM [20]: < 10% |
| N#Cc1c(-c2ccc(F)cc2)nc(SCc2ccc([N+](=O)[O-])cc2)nc1N1CCN(c2ccccc2)CC1 [4o, 4-(4-Fluorophenyl)-2-((4-nitrobenzyl)thio)-6-(4-phenylpiperazin-1-yl)pyrimidine-5-carbonitrile] | 13.9 | < 10 | < 10 | 165 to 167 | < 10 | < 10 | < 10 | < 10 | < 10 | 12.3 | < 10 | < 10 | < 10 | < 10 | < 10 | < 10 | < 10 | < 10 | < 10 | < 10 | inhibition at 10 µM [20]: < 10% |
| Cc1ccc(CSc2nc(-c3ccc(F)cc3)c(C#N)c(N3CCN(c4ccccc4)CC3)n2)cc1 [4p, 4-(4-Fluorophenyl)-2-((4-methylbenzyl)thio)-6-(4-phenylpiperazin-1-yl) pyrimidine-5-carbonitrile] | 20.3 | 12.3 | < 10 | 145 to 147 | < 10 | < 10 | < 10 | < 10 | < 10 | 10.6 | < 10 | 10.3 | < 10 | 12.2 | 15.1 | < 10 | < 10 | < 10 | 18 | < 10 | inhibition at 10 µM [20]: < 10% |
